For data set [1], the system named is Female diabetic dbdb-mice. In words: Glucose lowering in female diabetic dbdb-mice. It counts as in vivo. To be noted: 100 μg/kg s.c. The procedure:
Female diabetic dbdb-mice (BKS.Cg-+Leprdb/+Leprdb/OlaHsd) 10 weeks of age at study start were used. Mice were habituated to feeding and housing conditions for at least 2 weeks. 7 days prior to study start, HbA1c were determined to allocate mice to groups, aiming to spread low, medium and high HbA1c-values and in consequence the group-means (n=8), as equally as possible. On the day of study, food was removed, directly before sampling for baseline glucose assessment (t=0 min) Immediately afterwards, compounds or vehicle (phosphor buffered saline, PBS) were administered subcutaneously, 100 μg/kg, 10 ml/kg. Afterwards, blood samples were drawn by tail tip incision at 15, 30, 60, 90, 120, 150, 180, 240, 360, 480 min and 24 h. Food was re-offered after the 480 min-sampling.
Data were analysed by 2-W-ANOVA on repeated measurements, followed by Dunnett's test as post-hoc assessment, level of significance p<0.05.

A short description of another data set: physchem. Type of data set: physicochemical. The method, then:
Prior to the testing of solubility and stability of a peptide batch, its content was determined Therefore, two parameters were investigated, its purity (HPLC-UV) and the amount of salt load of the batch (ion chromatography).
. Therefore, solutions from solid samples were prepared in different buffer systems with a concentration of 1.0 mg/mL compound based on the previously determined content. HPLC-UV was performed after 2 h of gentle agitation from the supernatant, which was obtained by 20 min of centrifugation at 4000 rpm.
This analysis also served as starting point (t0) for the stability testing.
As HPLC/UPLC method, method D or E has been used.

Consider 2 molecules from patent US20170022260A9 (Sanofi, priority 2013, published 2017).

Values after ≈ are worked out from the molar mass of the structure shown.

As to “H-Aib-HGTFTSDLSKQLDEQRAKDFIEWLIAGGPSSGAPPPS-NH2 [SEQ ID NO: 10]”, in data set [1] (female db/db-mice, p<0.05, 2-way-ANOVA, Dunnett's post-hoc test), the “reduction of glucose compared to vehicle control, statistical significance” value was “statistical significant reduction of glucose compared to vehicle control from t=60 min until 240 min”. In addition, in data set [1] (non-fasted female db/db-mice, change from baseline (baseline on average 28 mmol/l)), the “maximal effect, glucose reduction” value was around 12 mmol/1.
For `CC[C@H](C)[C@H](NC(=O)[C@H](CC(C)C)NC(=O)[C@H](Cc1c[nH]c2ccccc12)NC(=O)[C@H](CCC(=O)O)NC(=O)[C@@H](NC(=O)[C@H](Cc1ccccc1)NC(=O)[C@H](CCC(=O)O)NC(=O)[C@H](CCCCN)NC(=O)[C@H](C)NC(=O)[C@H](CCCNC(=N)N)NC(=O)[C@H](CCC(N)=O)NC(=O)[C@H](CCC(=O)O)NC(=O)[C@H](CC(=O)O)NC(=O)[C@H](CC(C)C)NC(=O)[C@H](CCC(N)=O)NC(=O)[C@H](CCCCN)NC(=O)[C@H](CO)NC(=O)[C@H](CC(C)C)NC(=O)[C@H](CC(=O)O)NC(=O)[C@H](CO)NC(=O)[C@@H](NC(=O)[C@H](Cc1ccccc1)NC(=O)[C@@H](NC(=O)CNC(=O)[C@H](CCC(N)=O)NC(=O)[C@H](CO)NC(=O)[C@@H](N)Cc1c[nH]cn1)[C@@H](C)O)[C@@H](C)O)[C@@H](C)CC)C(=O)N[C@@H](C)C(=O)NCC(=O)NCC(=O)N1CCC[C@H]1C(=O)N[C@H](C(=O)N[C@@H](CO)C(=O)NCC(=O)N[C@@H](C)C(=O)N1CCC[C@H]1C(=O)N1CCC[C@H]1C(=O)N1CCC[C@H]1C(=O)N[C@@H](CO)C(N)=O)C(C)C` [SEQ ID NO: 6, HSQGTFTSDLSKQLDEQRAKEFIEWLIAGGPVSGAPPPS-NH2], the solubility (usually the dissolved amount per volume that the medium holds) at 2 h in “physchem” (pH 4.5, solubility pH 4.5) is 934 µg/mL (≈ 223 µM); in the data set “physchem” (pH 7.4, solubility pH 7.4), above 1000 µg/mL.
